Like-named read-outs stand apart in the source and are kept apart here.
Tests used:
Assay type in all cases: cell-based
[1] = tested on: third stage larvae of Haemonchus contortus; test: Haemonchus contortus, Larvae Stage 3 (HcL3) In Vitro Assay; conditions: Haemonchus contortus, 96 h
[2] = tested on: microfilariae of Dirofilaria immitis; test: Dirofilaria immitis, Microfilaria (DiMf) In Vitro Assay; conditions: Dirofilaria immitis, 72 h, read-out: DiMf MED, Minimum Effective Dose, D. immitis microfilariae motility, in vitro
D. immitis L4 larvae = test: Dirofilaria immitis, L4 Stage (DiL4) In Vitro Assay; conditions: for minimal effective concentration: Dirofilaria immitis, 72 h, read-out: DiL4 MED, Minimum Effective Dose, D. immitis L4 larvae motility, in vitro; for DiMf/DiL4: larval stage selectivity, ratio of DiMf MED to DiL4 MED
[3] = read-out: HcL3 MED, Haemonchus contortus third stage larvae in vitro, class mark appended to the Ex # in Table 3
[4] = read-out: HcL3 MED, Minimum Effective Dose, H. contortus third stage larvae, approximately 96 hours

## CC(C)C[C@H]1C(=O)O[C@H](Cc2ccc(Cc3cccnc3C3CC3)cc2)C(=O)N(C)[C@@H](CC(C)C)C(=O)O[C@H](C)C(=O)N(C)[C@@H](CC(C)C)C(=O)O[C@H](Cc2ccc(Cc3cccnc3C3CC3)cc2)C(=O)N(C)[C@@H](CC(C)C)C(=O)O[C@H](C)C(=O)N1C [Example 3-296, (3S,6R,9S,12R,15S,18R,21S,24R)-6,18-bis(4-((2-cyclopropylpyridin-3-yl)methyl)benzyl)-3,9,15,21-tetraisobutyl-4,10,12,16,22,24-hexamethyl-1,7,13,19-tetraoxa-4,10,16,22-tetraazacyclotetracosan-2,5,8,11,14,17,20,23-octaone]
[1]; [3]
  minimal effective concentration: 1 to 3.3 µM
[1]; [4]
  minimal effective concentration: 1.8 µM
[2]
  minimal effective concentration: 0.03 µM
D. immitis L4 larvae
  minimal effective concentration: 0.0005 µM
  DiMf/DiL4: 60

## CC(C)C[C@H]1C(=O)O[C@H](Cc2ccc(Cc3cccnc3OC(F)F)cc2)C(=O)N(C)[C@@H](CC(C)C)C(=O)O[C@H](C)C(=O)N(C)[C@@H](CC(C)C)C(=O)O[C@H](Cc2ccc(Cc3cccnc3OC(F)F)cc2)C(=O)N(C)[C@@H](CC(C)C)C(=O)O[C@H](C)C(=O)N1C [Example 3-297, (3S,6R,9S,12R,15S,18R,21S,24R)-6,18-bis(4-((2-(difluoromethoxy)pyridin-3-yl)methyl)benzyl)-3,9,15,21-tetraisobutyl-4,10,12,16,22,24-hexamethyl-1,7,13,19-tetraoxa-4,10,16,22-tetraazacyclotetracosan-2,5,8,11,14,17,20,23-octaone]
[1]; [4]
  minimal effective concentration: > 10 µM
[2]
  minimal effective concentration: 0.03 µM
D. immitis L4 larvae
  minimal effective concentration: 0.001 µM
  DiMf/DiL4: 30

## CC(C)C[C@H]1C(=O)O[C@H](Cc2ccc(Cc3cnccc3C#N)cc2)C(=O)N(C)[C@@H](CC(C)C)C(=O)O[C@H](C)C(=O)N(C)[C@@H](CC(C)C)C(=O)O[C@H](Cc2ccc(Cc3cnccc3C#N)cc2)C(=O)N(C)[C@@H](CC(C)C)C(=O)O[C@H](C)C(=O)N1C [Example 3-307, 3,3′-(((((2R,5S,8R,11S,14R,17S,20R,23S)-5,11,17,23-tetraisobutyl-4,8,10,16,20,22-hexamethyl-3,6,9,12,15,18,21,24-octaoxo-1,7,13,19-tetraoxa-4,10,16,22-tetraazacyclotetracosane-2,14-diyl)bis(methylene))bis(4,1-phenylene))bis(methylene))diisonicotinonitrile]
[1]; [3]
  minimal effective concentration: < 1 µM
[1]; [4]
  minimal effective concentration: 1 µM
[1]; read-out: HcL3 MED, approximately 96 hours incubation, multiple-resistant field isolate
  minimal effective concentration: ≤ 1 µM
[2]
  minimal effective concentration: 0.0003 µM
D. immitis L4 larvae
  minimal effective concentration: 0.0001 µM
  DiMf/DiL4: 3

## CSc1ncccc1Cc1ccc(C[C@H]2OC(=O)[C@H](CC(C)C)N(C)C(=O)[C@@H](C)OC(=O)[C@H](CC(C)C)N(C)C(=O)[C@@H](Cc3ccc(Cc4cccnc4SC)cc3)OC(=O)[C@H](CC(C)C)N(C)C(=O)[C@@H](C)OC(=O)[C@H](CC(C)C)N(C)C2=O)cc1 [Example 3-308, (3S,6R,9S,12R,15S,18R,21S,24R)-3,9,15,21-tetraisobutyl-4,6,10,16,18,22-hexamethyl-12,24-bis(4-((2-(methylthio)pyridin-3-yl)methyl)benzyl)-1,7,13,19-tetraoxa-4,10,16,22-tetraazacyclotetracosan-2,5,8,11,14,17,20,23-octaone]
[1]; [3]
  minimal effective concentration: 1 to 3.3 µM
[1]; [4]
  minimal effective concentration: 3.3 µM
[2]
  minimal effective concentration: 0.01 µM
D. immitis L4 larvae
  minimal effective concentration: 0.001 µM
  DiMf/DiL4: 10
